Measured values taken from US20110038959A1, “PLANT-ORIGIN DRUG FOR PREVENTING OR IMPROVING HYPERURICEMIA” (priority 2009, published 2011).

Experiments:
[1] = target: T1, buttermilk-derived xanthine oxidase (Bos taurus, UniProt P80457); test: Xanthine oxidase inhibitory activity assay (xanthine substrate, uric acid detected by absorbance at 295 nm); type: biochemical
T1 construct: an enzyme solution comprising buttermilk-derived xanthine oxidase dissolved at 0.2 units/ml in phosphate buffer; from tissue; host or cells: buttermilk

[2] = tested on: potassium oxonate-induced hyperuricemic rat models; test: Uric acid level in blood of potassium oxonate-induced hyperuricemic rat models; type: in vivo, SD rats
Experimental: 5-week-old male SD rats were purchased from Japan SLC, Inc. and were acclimatized for 1 week. The rats were divided into groups based on body weight (each group consisting of 6 rats), and 5 groups were designated in total; i.e., a control group, a group to which the Artemisia extract is administered, a group to which the chrysanthemum extract is administered, a group to which the guava extract is administered, and a group to which the oregano extract is administered. At the outset, potassium oxonate (Sigma-Aldrich) was administered intraperitoneally to rats at a dose of 250 mg/kg of body weight to prepare potassium oxonate-induced hyperuricemic rat models. […] Blood serum was fractionated from the sampled blood via centrifugation and the uric acid level in the blood was measured. […] Blood serum was fractionated from the sampled blood via centrifugation and the uric acid level in the blood was measured. […] Blood serum was fractionated from the sampled blood via centrifugation and the uric acid level in the blood was measured.

T1 sequence (P80457 whole entry): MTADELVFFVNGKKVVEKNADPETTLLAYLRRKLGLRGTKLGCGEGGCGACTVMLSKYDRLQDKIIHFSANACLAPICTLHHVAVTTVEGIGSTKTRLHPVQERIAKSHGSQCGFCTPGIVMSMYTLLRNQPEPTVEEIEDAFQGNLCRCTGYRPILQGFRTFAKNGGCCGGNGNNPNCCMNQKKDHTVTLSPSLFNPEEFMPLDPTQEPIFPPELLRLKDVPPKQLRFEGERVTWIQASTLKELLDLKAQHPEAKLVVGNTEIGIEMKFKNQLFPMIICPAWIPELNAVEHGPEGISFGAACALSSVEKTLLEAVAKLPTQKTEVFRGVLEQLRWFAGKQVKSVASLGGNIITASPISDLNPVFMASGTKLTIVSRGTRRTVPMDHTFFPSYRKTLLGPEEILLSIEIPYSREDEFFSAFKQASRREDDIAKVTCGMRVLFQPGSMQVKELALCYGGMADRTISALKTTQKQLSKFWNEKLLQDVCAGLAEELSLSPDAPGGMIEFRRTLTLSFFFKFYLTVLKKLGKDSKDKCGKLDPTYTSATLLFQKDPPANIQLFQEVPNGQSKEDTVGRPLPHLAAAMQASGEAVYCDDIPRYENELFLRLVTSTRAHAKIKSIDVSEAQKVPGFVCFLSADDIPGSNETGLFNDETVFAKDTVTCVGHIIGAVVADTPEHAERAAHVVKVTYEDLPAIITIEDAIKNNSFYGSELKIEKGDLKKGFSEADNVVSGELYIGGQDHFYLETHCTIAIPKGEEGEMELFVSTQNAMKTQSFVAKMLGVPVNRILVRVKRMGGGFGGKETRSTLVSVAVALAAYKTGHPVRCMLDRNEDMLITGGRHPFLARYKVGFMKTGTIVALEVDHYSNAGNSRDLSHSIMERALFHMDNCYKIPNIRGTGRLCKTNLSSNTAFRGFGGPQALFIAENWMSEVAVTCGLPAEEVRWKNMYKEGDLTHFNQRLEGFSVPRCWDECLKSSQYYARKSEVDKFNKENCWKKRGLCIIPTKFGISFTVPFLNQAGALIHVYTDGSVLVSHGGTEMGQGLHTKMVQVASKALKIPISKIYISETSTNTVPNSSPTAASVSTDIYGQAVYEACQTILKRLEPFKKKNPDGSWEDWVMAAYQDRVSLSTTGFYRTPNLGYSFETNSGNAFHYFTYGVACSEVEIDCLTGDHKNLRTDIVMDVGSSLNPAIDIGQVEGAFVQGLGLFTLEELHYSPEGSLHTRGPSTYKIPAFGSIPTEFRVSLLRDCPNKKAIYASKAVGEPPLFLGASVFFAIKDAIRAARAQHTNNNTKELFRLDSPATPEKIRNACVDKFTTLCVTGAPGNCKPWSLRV

Structure (SMILES): O=C(/C=C/c1ccc(O)c(O)c1)c1ccc(O)c(O)c1O [Okanin, okanin]
- xanthine oxidase activity compared with allopurinol (in words) ([1]; comparison of IC50 values, Table 2): more potent xanthine oxidase activity than allopurinol
- IC50 ([1]; concentration inhibiting 50% of xanthine oxidase activity, solvent control = 100%): 1500 nM
- Uric acid level in blood ([2]; 50 mg okanin per kg body weight 1 hour after potassium oxonate (250 mg/kg i.p.), blood sampled 2 hours after potassium oxonate, control group 4.92 ± 0.53): 4.10 ± 0.56 mg/dL
- uric acid level after administration (in words) ([2]; okanin 50 mg/kg, blood 2 hours after potassium oxonate, versus control group, Table 5): significantly lowered uric acid level
